The source of these data is ChEMBL document CHEMBL3988442, “University of Dundee, Small-Polar-MMV Screening Library” (2021).

Experiment [1] in a line: microbe, parasite or virus in culture. Conditions: Mycobacterium tuberculosis, 96 h, read-out: pIC50 (converted).
A short description of experiment [2]: microbe, parasite or virus in culture. The note with it: Mycobacterium tuberculosis, 72 h, read-out: pIC50 (converted).

For `Cc1nnc(SCCCNC(=O)c2cc(Cl)c[nH]2)s1`, the IC50 in experiment [1] is 119 µM; in experiment [2], 121 µM.

In the case of `Cc1ccc(F)c(CN2CC[C@H](N)C2)c1`, the IC50 in experiment [1] is 225 µM; in experiment [2], 213 µM.

In the case of `CC(=O)N1CCC[C@H]1C(=O)NCCc1csc(C)n1`, the IC50 in experiment [1] and in experiment [2] was > 501 µM in each case.

`CCc1nnc(NC(=O)N(CCOC)Cc2ccc(C)o2)s1`: the IC50 in experiment [1] and in experiment [2] was > 50.1 µM throughout.

Take `Cc1cc2nc(C(C)C)cc(N(C)CC3CCCN3C)n2n1` (stereo unspecified): the IC50 was > 50.1 µM in experiment [1] and 9.21 µM in experiment [2].

For `CN(C)C(CN)c1ccc(F)cc1` (stereo unspecified), the values for the IC50 in experiment [1] and in experiment [2] were > 501 µM and 244 µM, respectively.

Turning to `CCNC1=NN=C(c2ccc3c(c2)OCCCO3)CS1`, the IC50 in experiment [1] is > 501 µM; in experiment [2], 274 µM.

Consider `CC(C(=O)NC1CC1)N1CCN(C)c2ccccc2C1` (stereo unspecified), for which the IC50 in experiment [1] is 276 µM; in experiment [2], 248 µM.

On to `CC(C)S(=O)(=O)CCCn1nnc(-c2ccsc2)n1`, for which the IC50 is 94.9 µM in experiment [1] and 56.7 µM in experiment [2].

Regarding `Fc1ccccc1CN1CCC[C@H](Cn2nnc(-c3cccs3)n2)C1`, the IC50 in experiment [1] was 26.3 µM; in experiment [2] it was 12.9 µM.

Turning to `NCCc1nsc2ccccc12`, the IC50 in experiment [1] was 189 µM; in experiment [2] it was 129 µM.

Turning to `CC(C)c1ccccc1OCC(O)CN(C)CCO` (stereo unspecified), the IC50 was 257 µM in experiment [1] and 123 µM in experiment [2].

In the case of `Nc1nc(CCCNC(=O)Cc2ccsc2)cs1`, the IC50 in experiment [1] and in experiment [2] was > 501 µM each time.

As to `CN1N=C(C(=O)NCc2csc(Br)c2)CCC1=O`, the IC50 in experiment [1] is 51 µM; in experiment [2], 147 µM.

Turning to `O=C(NCCSC1CCCC1)c1ccccn1`, the IC50 in experiment [1] is > 501 µM; in experiment [2], 173 µM.

Regarding `CN(C1(C#N)CCC1)S(=O)(=O)c1cccs1`, the IC50 is > 501 µM in experiment [1] and 323 µM in experiment [2].

`COc1cccc2c1OCC(C(=O)N1CCN(C3CCCC3)C(=O)C1)C2` (stereo unspecified): the IC50 in experiment [1] and in experiment [2] was > 50.1 µM in each case.

Take `Cc1cnc(NC(=O)c2cccc(CN(C)Cc3ccno3)c2)s1`: the IC50 in experiment [1] is 37.3 µM; in experiment [2], 36.1 µM.

Take `CC(=O)Nc1ccc(N2CCCCC2)nc1`: the results for the IC50 in experiment [1] and in experiment [2] were 95.3 µM and 97.2 µM, respectively.

For the compound `COc1cccc(-c2ncc(CN)s2)c1`, the IC50 is 282 µM in experiment [1] and 161 µM in experiment [2].

For `N[C@@H]1CC[C@H](C(=O)NCCOCc2ccccc2)C1`, the results for the IC50 in experiment [1] and in experiment [2] were 267 µM and 226 µM, respectively.

For the compound `Cc1ccoc1C(=O)N(C)Cc1nc(C(C)C)no1`, the IC50 in experiment [1] is 179 µM; in experiment [2] it was > 501 µM.

Take `COc1cccc(N2CCC(CN)C2)c1` (stereo unspecified): the IC50 was 290 µM in experiment [1] and 69.7 µM in experiment [2].

For the compound `Cc1cnc(C(=O)NCCSCc2ccco2)cn1`, the IC50 in experiment [1] and in experiment [2] was > 501 µM throughout.

With `CCC(C)NC(=O)Cc1ccc2c(c1)OCCO2` (stereo unspecified), the IC50 in experiment [1] and in experiment [2] was > 501 µM throughout.

Take `CC(C)c1nc(CSc2nnc(-c3cccs3)n2CC(N)=O)no1`: the IC50 in experiment [1] was > 50.1 µM; in experiment [2] it was 30.9 µM.

For `O=C1CCC2(CNC(=O)C3CC3)CCCC=C2N1` (stereo unspecified), the IC50 in experiment [1] and in experiment [2] was > 501 µM each time.

In the case of `CCO[C@H]1CN(c2nc(-c3ccccc3)no2)C[C@@H]1O`, the IC50 in experiment [1] was > 501 µM; in experiment [2] it was 262 µM.

`COc1ccccc1C(C)NC(=O)Cn1cc(C)cn1` (stereo unspecified): the IC50 in experiment [1] was > 501 µM; in experiment [2], 226 µM.

With `COCCN1CCC(CNC(=O)N2CCC(C)CC2)C1` (stereo unspecified), the figures for the IC50 in experiment [1] and in experiment [2] were 83.9 µM and 75.1 µM, respectively.

For the compound `CN(C)C(=O)CN1CCOC(CCc2ccccc2)C1` (stereo unspecified), the IC50 in experiment [1] and in experiment [2] was > 501 µM each time.

As for `COc1cccc(SCC(=O)N2CCOC(C)C2)c1` (stereo unspecified), the IC50 in experiment [1] and in experiment [2] was > 501 µM throughout.

Turning to `c1cc(CNCc2ccc(-n3cncn3)nc2)cc(OC2CCCC2)c1`, the IC50 is 33.9 µM in experiment [1] and 35 µM in experiment [2].

As to `O=C(CCNCCO)c1ccccc1`, the IC50 was > 501 µM in experiment [1] and 137 µM in experiment [2].

As for `NC(=O)C(Sc1nncs1)c1ccc(Br)cc1` (stereo unspecified), the IC50 was 266 µM in experiment [1] and 412 µM in experiment [2].

For `NCc1cc(Oc2cccc(F)c2)ccn1`, the IC50 in experiment [1] is > 501 µM; in experiment [2], 45.4 µM.

Regarding `CC(Nc1cccc(OC(F)(F)F)c1)C(=O)NC(N)=O` (stereo unspecified), the IC50 is > 501 µM in experiment [1] and 184 µM in experiment [2].

In the case of `CN(Cc1ccccc1Br)C(=O)c1nccnc1N`, the IC50 in experiment [1] and in experiment [2] was > 501 µM throughout.

For the compound `OCC(O)CSCc1nc(-c2ccc(Cl)cc2)no1` (stereo unspecified), the values for the IC50 in experiment [1] and in experiment [2] were 260 µM and 385 µM, respectively.

With `NCCOc1ccc2ccccc2n1`, the values for the IC50 in experiment [1] and in experiment [2] were > 501 µM and 244 µM, respectively.

For `CCN(CC)S(=O)(=O)c1ccc(CNC(=O)c2cc(C)on2)cc1`, the IC50 was 26.2 µM in experiment [1] and > 50.1 µM in experiment [2].

For `Cn1ccc(C(=O)NCc2csc(Br)c2)cc1=O`, the IC50 in experiment [1] and in experiment [2] was > 501 µM each time.

Turning to `Cc1ccc(CN2CCN(C(=O)c3ccc(Br)o3)CC2)cc1`, the IC50 in experiment [1] was 37.2 µM; in experiment [2] it was 30.4 µM.

`CN(Cc1nccs1)C(=O)C1COc2ccccc2C1` (stereo unspecified): the IC50 in experiment [1] is 195 µM; in experiment [2], 242 µM.

As for `NCC(CO)Cc1ccsc1` (stereo unspecified), the IC50 in experiment [1] was 176 µM; in experiment [2] it was 122 µM.

Consider `Cc1ccc(C(C)(C)CN(C)C(=O)CCN)cc1`, for which the IC50 was > 501 µM in experiment [1] and 64.1 µM in experiment [2].

Take `O=c1c2sccc2nc2n1CCN(Cc1cc(F)ccc1F)CC2`: the IC50 in experiment [1] was > 50.1 µM; in experiment [2], 25 µM.

As for `Cc1cc(C(C)NC(=O)CN2CSCC2=O)c(C)s1` (stereo unspecified), the IC50 was > 501 µM in experiment [1] and 274 µM in experiment [2].

For `CC(=O)Nc1ccc(N2C(=O)C=CC2=O)cc1`, the IC50 in experiment [1] was > 501 µM; in experiment [2], 181 µM.

For `CC(C)N(CCS(=O)(=O)c1ccccc1)CC(N)=O`, the IC50 in experiment [1] is > 501 µM; in experiment [2] it was 435 µM.

With `CC(C)N(C)S(=O)(=O)NC1CCOc2ccccc21` (stereo unspecified), the IC50 was > 501 µM in experiment [1] and 340 µM in experiment [2].

`CC(C)Cc1noc(-c2ccc(N(C)CCO)nc2)n1`: the IC50 was 397 µM in experiment [1] and 239 µM in experiment [2].

Turning to `COc1cccc(CCC(=O)N2CCCC2)c1`, the IC50 was 8 µM in experiment [1] and 2.73 µM in experiment [2].

`O=C(NCCOCc1ccccc1)c1ccco1`: the IC50 in experiment [1] was 245 µM; in experiment [2], 249 µM.

Regarding `CN(Cc1cccc(F)c1)C(=O)c1cnccn1`, the IC50 in experiment [1] and in experiment [2] was > 501 µM each time.

Take `COCC(=O)NCc1noc(-c2cccc(C)c2)n1`: the IC50 is 160 µM in experiment [1] and 265 µM in experiment [2].

Regarding `CC(C)n1nccc1NC(=O)NCCc1nc2ccc(F)cc2n1C`, the IC50 in experiment [1] and in experiment [2] was > 50.1 µM each time.

As for `Cc1c(Br)cccc1S(=O)(=O)NCCN`, the IC50 in experiment [1] was > 501 µM; in experiment [2] it was 212 µM.

With `COc1ccc(CCSc2nnc[nH]2)cc1`, the values for the IC50 in experiment [1] and in experiment [2] were 111 µM and 142 µM, respectively.

Take `CCNC(=O)NC(c1ccc2c(c1)OCCO2)C(C)C` (stereo unspecified): the IC50 in experiment [1] and in experiment [2] was > 501 µM each time.

Regarding `COc1ccnc(CN2CCCC2CSC)c1OC` (stereo unspecified), the values for the IC50 in experiment [1] and in experiment [2] were > 501 µM and 180 µM, respectively.

With `COC(=O)CSc1nc(N)c2ccsc2n1`, the results for the IC50 in experiment [1] and in experiment [2] were > 501 µM and 250 µM, respectively.

With `CCc1ccc(OCn2cc(N)cn2)cc1`, the values for the IC50 in experiment [1] and in experiment [2] were 134 µM and 292 µM, respectively.

In the case of `NC1CCN(Cc2ccccc2F)CC1`, the IC50 in experiment [1] and in experiment [2] was > 501 µM each time.

Regarding `CC(Nc1ccc(OC(F)F)cn1)c1ccncc1` (stereo unspecified), the IC50 is 246 µM in experiment [1] and 195 µM in experiment [2].

On to `CCc1noc(CSc2n[nH]c(-c3ccccn3)n2)n1`, for which the IC50 in experiment [1] was 25.1 µM; in experiment [2], > 50.1 µM.

For the compound `O=C1N(Cc2ccc(F)c(F)c2)CCCC12CCN(C1CCCCC1)C2` (stereo unspecified), the results for the IC50 in experiment [1] and in experiment [2] were 26.3 µM and 15.1 µM, respectively.

Consider `CSc1ccccc1NC(=O)CCn1cnc(C#N)n1`, for which the IC50 in experiment [1] and in experiment [2] was > 501 µM in each case.

Regarding `COc1ccnc(CN2CCCC(CCc3ccc(F)cc3)C2)c1OC` (stereo unspecified), the IC50 is 20.9 µM in experiment [1] and 34.7 µM in experiment [2].

On to `C=C(C)CN1CCC(NC(=O)N2CCSCC2)CC1`, for which the IC50 in experiment [1] and in experiment [2] was > 501 µM in each case.

Consider `COCCNC(=O)Nc1ccc2c(c1)OC(C)(C)O2`, for which the IC50 is 170 µM in experiment [1] and 65.7 µM in experiment [2].

Take `CCC(C)(C)NC(=O)CNc1ccc2c(c1)OCCO2`: the IC50 in experiment [1] was 75.9 µM; in experiment [2], 95.2 µM.

As to `Cc1ccc(NC(=O)C(C)N2CCC(O)CC2)cc1F` (stereo unspecified), the IC50 in experiment [1] is 284 µM; in experiment [2] it was 200 µM.

Consider `Cc1cnn(CC2CCCN2Cc2ncc(-c3ccc(F)cc3)o2)c1` (stereo unspecified), for which the IC50 in experiment [1] is > 50.1 µM; in experiment [2], 27 µM.

With `CC(c1nc(-c2ccccn2)no1)N1CCSCC1` (stereo unspecified), the IC50 is 115 µM in experiment [1] and 86.8 µM in experiment [2].

`COCCNS(=O)(=O)c1cccc2c1CN(C(=O)c1ccoc1)CC2`: the IC50 in experiment [1] and in experiment [2] was > 50.1 µM each time.

On to `C=C(C)COC(=O)c1ccc(-n2cncn2)cc1C`, for which the figures for the IC50 in experiment [1] and in experiment [2] were 279 µM and 182 µM, respectively.

Regarding `CN(Cc1ccc(Oc2ccccc2)cc1)C(=O)CN`, the IC50 in experiment [1] is 157 µM; in experiment [2], 130 µM.

For the compound `O=C(Nc1nc(-c2ccsc2)ns1)C1CCCN1` (stereo unspecified), the IC50 in experiment [1] and in experiment [2] was > 501 µM in each case.

For the compound `CCCS(=O)(=O)N(C)Cc1cccc(OCC)n1`, the figures for the IC50 in experiment [1] and in experiment [2] were > 501 µM and 367 µM, respectively.

Take `CC(=O)NCC(Cc1cccc(F)c1)n1cccc1` (stereo unspecified): the IC50 was 42.5 µM in experiment [1] and > 50.1 µM in experiment [2].

For the compound `Cc1nc(C2CCCN(C(=O)c3cc4c(s3)CCCC4)C2)no1` (stereo unspecified), the IC50 in experiment [1] is 11.7 µM; in experiment [2] it was 40.8 µM.

In the case of `OC1(CNc2nc(-c3ccccc3)ns2)CCSC1` (stereo unspecified), the IC50 was 256 µM in experiment [1] and 279 µM in experiment [2].
